Measurements as given in patent US20260297092A1, “PYRAZOLOPYRIMIDINE DERIVATIVES AS INHIBITORS OF NLRP3” (Takeda Pharmaceutical Company Limited, priority 2023, published 2026).

How the values were obtained:
[1] = test system: TNF-α (NF-κB pathway, THP-1 cells); test: TNF-α Assay (IC50); assay type: cell-based, human; settings: Homo sapiens, 600 ng/mL LPS, 3 hours
How it was run: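 Supernatant TNF-α quantified by ELISA after 3 h stimulation with 600 ng/mL LPS at 37 °C, following 30 min compound preincubation. Cells: IFN-differentiated (25 ng/mL, 24 h) THP-1 macrophages, 40,000/well, serum-free. IC50 by sigmoidal fit of % inhibition, with TPCA-1 as 100% control.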

[2] = test system: NLRP3 inflammasome (IL-1β production in THP-1 cells); test: IL-1β TR-FRET Assay (percentage of inhibition at 300 nM, 6 μM or 10 μM); assay type: cell-based, human; settings: Homo sapiens, LPS priming, ATP activation; for inhibition at 0.3 µM: THP-1, 300 nM, read-out: IL-1β inhibitory rate at 300 nM (%); for inhibition at 6 µM: THP-1, 6 μM, read-out: IL-1β inhibitory rate at 6 μM (%)
How it was run: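 Percent inhibition of IL-1β used DMSO wells as 0% and 3 μM MCC-950 wells as full inhibition, with supernatant read by HTRF. Beforehand, IFN-γ-differentiated (25 ng/mL, 24 h), LPS-primed (50 ng/mL, 24 h) THP-1 cells received compound 30 min before inflammasome activation by 20 mM ATP for 2 h.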

| Compound | IC50 [1] [µM] | inhibition at 0.3 µM [2] [%] | inhibition at 6 µM [2] [%] | inhibition at 10 µM ([2]; THP-1, 10 μM, read-out: IL-1β inhibitory rate at 10 μM (%)) [%] |
| --- | --- | --- | --- | --- |
| Cc1cc(C)c(-n2cc3c(=O)[nH]c(C4CCCCO4)nc3n2)c(O)c1C (stereo not drawn) [Example 81, 2-(2-hydroxy-3,4,6-trimethylphenyl)-6-(oxan-2-yl)-2,5-dihydro-4H-pyrazolo[3,4-d]pyrimidin-4-one] | > 30 | 97 | – | – |
| Cc1cc(C)c(-n2cc3c(=O)[nH]c(-c4ccc(F)cn4)nc3n2)c(O)c1 [Example 13, 6-(5-fluoropyridin-2-yl)-2-(2-hydroxy-4,6-dimethylphenyl)-2,5-dihydro-4H-pyrazolo[3,4-d]pyrimidin-4-one] | > 30 | 99 | – | – |
| Cc1cc(C2CC2)cc(C)c1-n1cc2c(=O)[nH]c(O[C@@H]3CCOC3)nc2n1 [Example 293, 2-(4-cyclopropyl-2,6-dimethylphenyl)-6-{[(3R)-oxolan-3-yl]oxy}-2,5-dihydro-4H-pyrazolo[3,4-d]pyrimidin-4-one] | > 30 | – | 99 | – |
| Cc1cc(C2CC2)cc(C)c1-n1cc2c(=O)[nH]c(-c3ccn(C)n3)nc2n1 [Example 297, 2-(4-cyclopropyl-2,6-dimethylphenyl)-6-(1-methyl-1H-pyrazol-3-yl)-2,5-dihydro-4H-pyrazolo[3,4-d]pyrimidin-4-one] | > 30 | – | 90 | – |
| O=c1[nH]c(C2CC2)nc2nn(-c3c(F)cc(C4CC4)cc3C(F)F)cc12 [Example 173, 6-cyclopropyl-2-[4-cyclopropyl-2-(difluoromethyl)-6-fluorophenyl]-2,5-dihydro-4H-pyrazolo[3,4-d]pyrimidin-4-one] | > 30 | 108 | – | – |
| CCOc1nc2nn(-c3ncc(Br)cc3C(F)(F)F)cc2c(=O)[nH]1 [Example 148, 2-[5-bromo-3-(trifluoromethyl)pyridin-2-yl]-6-ethoxy-2,5-dihydro-4H-pyrazolo[3,4-d]pyrimidin-4-one] | > 30 | 96 | – | – |
| CCCCc1nc2nn(-c3c(C)cc(C)cc3O)cc2c(=O)[nH]1 [Example 17, 6-butyl-2-(2-hydroxy-4,6-dimethylphenyl)-2,5-dihydro-4H-pyrazolo[3,4-d]pyrimidin-4-one] | > 30 | 99 | – | – |
| COC(C)Cc1nc2nn(-c3c(C)cc(C)cc3O)cc2c(=O)[nH]1 (stereo not drawn) [Example 27, 2-(2-hydroxy-4,6-dimethylphenyl)-6-(2-methoxypropyl)-2,5-dihydro-4H-pyrazolo[3,4-d]pyrimidin-4-one] | > 30 | 94 | – | – |
| CCOc1nc2nn(-c3c(F)cc(C)cc3C(F)(F)F)cc2c(=O)[nH]1 [Example 73, 6-ethoxy-2-[2-fluoro-4-methyl-6-(trifluoromethyl)phenyl]-2,5-dihydro-4H-pyrazolo[3,4-d]pyrimidin-4-one] | > 30 | 97 | – | – |
| CCOc1nc2nn(-c3c(C)cc(C4(F)CC4)cc3C)cc2c(=O)[nH]1 [Example 245, 6-ethoxy-2-[4-(1-fluorocyclopropyl)-2,6-dimethylphenyl]-2,5-dihydro-4H-pyrazolo[3,4-d]pyrimidin-4-one] | > 30 | – | 101 | – |
| Cc1cc(C)c(-n2cc3c(=O)[nH]c(O[C@H]4CCOC4)nc3n2)c(O)c1 [Example 14, 2-(2-hydroxy-4,6-dimethylphenyl)-6-{[(3S)-oxolan-3-yl]oxy}-2,5-dihydro-4H-pyrazolo[3,4-d]pyrimidin-4-one] | > 30 | 96 | – | – |
| CCOc1nc2nn(-c3c(OCC)cc(C(F)(F)F)cc3C(F)F)cc2c(=O)[nH]1 [Example 95, 2-[2-(difluoromethyl)-6-ethoxy-4-(trifluoromethyl)phenyl]-6-ethoxy-2,5-dihydro-4H-pyrazolo[3,4-d]pyrimidin-4-one] | > 30 | 72 | – | – |
| CCOc1nc2nn(-c3c(C)cc(C4CC4(F)F)cc3F)cc2c(=O)[nH]1 (racemic) [Example 112, 2-[4-(2,2-difluorocyclopropyl)-2-fluoro-6-methylphenyl]-6-ethoxy-2,5-dihydro-4H-pyrazolo[3,4-d]pyrimidin-4-one] | > 30 | 98 | – | – |
| CCOc1cc(F)c(-n2cc3c(=O)[nH]c(OCC)nc3n2)c(Br)c1 [Example 158, 2-(2-bromo-4-ethoxy-6-fluorophenyl)-6-ethoxy-2,5-dihydro-4H-pyrazolo [3,4-d]pyrimidin-4-one] | > 30 | 99 | – | – |
| Cc1cc(C)c(-n2cc3c(=O)[nH]c(C4CN(C)CCO4)nc3n2)c(O)c1 (stereo not drawn) [Example 88, 2-(2-hydroxy-4,6-dimethylphenyl)-6-(4-methylmorpholin-2-yl)-2,5-dihydro-4H-pyrazolo[3,4-d]pyrimidin-4-one] | > 30 | 86 | – | – |
| Cc1cc(C)c(-n2cc3c(=O)[nH]c(-c4cccnn4)nc3n2)c(O)c1 [Example 30, 2-(2-hydroxy-4,6-dimethylphenyl)-6-(pyridazin-3-yl)-2,5-dihydro-4H-pyrazolo[3,4-d]pyrimidin-4-one] | > 30 | 100 | – | – |
| CCOc1nc2nn(-c3c(F)cc(C4CC4)cc3Cl)cc2c(=O)[nH]1 [Example 137, 2-(2-chloro-4-cyclopropyl-6-fluorophenyl)-6-ethoxy-2,5-dihydro-4H-pyrazolo[3,4-d]pyrimidin-4-one] | > 30 | 98 | – | – |
| Cc1cc(C2CC2)cc(C)c1-n1cc2c(=O)[nH]c([C@@]3(F)CCOC3)nc2n1 [Example 247, 2-(4-cyclopropyl-2,6-dimethylphenyl)-6-(3-fluorooxolan-3-yl)-2,5-dihydro-4H-pyrazolo[3,4-d]pyrimidin-4-one] | > 30 | – | 100 | – |
| Cc1cc(C)c(-n2cc3c(=O)[nH]c(-c4ccccn4)nc3n2)c(O)c1 [Example 9, 2-(2-hydroxy-4,6-dimethylphenyl)-6-(pyridin-2-yl)-2,5-dihydro-4H-pyrazolo[3,4-d]pyrimidin-4-one] | > 30 | 100 | – | – |
| CCOc1nc2nn(-c3c(C)cc(C)cc3O)cc2c(=O)[nH]1 [Example 1, 6-ethoxy-2-(2-hydroxy-4,6-dimethylphenyl)-2,5-dihydro-4H-pyrazolo[3,4-d]pyrimidin-4-one] | > 30 | 100 | – | – |
| CCOc1nc2nn(-c3c(F)cc(C4CC4)cc3C(F)F)cc2c(=O)[nH]1 [Example 110, 2-[4-cyclopropyl-2-(difluoromethyl)-6-fluorophenyl]-6-ethoxy-2,5-dihydro-4H-pyrazolo[3,4-d]pyrimidin-4-one] | > 30 | 99 | – | – |
| Cc1cc(C2CC2)cc(C)c1-n1cc2c(=O)[nH]c(-c3cc4n(n3)CCOC4)nc2n1 [Example 218, 2-(4-cyclopropyl-2,6-dimethylphenyl)-6-(6,7-dihydro-4H-pyrazolo[5,1-c][1,4]oxazin-2-yl)-2,5-dihydro-4H-pyrazolo[3,4-d]pyrimidin-4-one] | > 30 | 106 | – | – |
| CCOc1nc2nn(-c3c(F)cc(C)cc3C3CC3(F)F)cc2c(=O)[nH]1 (stereo not drawn) [Example 79, 2-[2-(2,2-difluorocyclopropyl)-6-fluoro-4-methylphenyl]-6-ethoxy-2,5-dihydro-4H-pyrazolo[3,4-d]pyrimidin-4-one] | > 30 | 95 | – | – |
| Cc1cc(C2CC2)cc(C)c1-n1cc2c(=O)[nH]c([C@@]3(F)CCCOC3)nc2n1 [Example 260, 2-(4-cyclopropyl-2,6-dimethylphenyl)-6-(3-fluorooxan-3-yl)-2,5-dihydro-4H-pyrazolo[3,4-d]pyrimidin-4-one] | > 30 | – | 96 | – |
| Cc1cc(C)c(-n2cc3c(=O)[nH]c(-c4ccccc4)nc3n2)c(O)c1 [Example 5, 2-(2-hydroxy-4,6-dimethylphenyl)-6-phenyl-2,5-dihydro-4H-pyrazolo[3,4-d]pyrimidin-4-one] | > 30 | 99 | – | – |
| Cc1cc(C)c(-n2cc3c(=O)[nH]c(Cn4cccn4)nc3n2)c(O)c1 [Example 75, 2-(2-hydroxy-4,6-dimethylphenyl)-6-[(1H-pyrazol-1-yl)methyl]-2,5-dihydro-4H-pyrazolo[3,4-d]pyrimidin-4-one] | > 30 | 98 | – | – |
| Cc1ccc(-n2cc3c(=O)[nH]c(Oc4ccccc4)nc3n2)c(C)c1 [Example 100, 2-(2,4-dimethylphenyl)-6-phenoxy-2,5-dihydro-4H-pyrazolo[3,4-d]pyrimidin-4-one] | > 30 | – | – | 100 |
| Cc1cc(C)c(-n2cc3c(=O)[nH]c(OCCCCN(C)C)nc3n2)c(O)c1 [Example 129, 6-[4-(dimethylamino)butoxy]-2-(2-hydroxy-4,6-dimethylphenyl)-2,5-dihydro-4H-pyrazolo[3,4-d]pyrimidin-4-one] | > 30 | 98 | – | – |
| Cc1cc(C)c(-n2cc3c(=O)[nH]c(CN4CCOCC4)nc3n2)c(O)c1 [Example 62, 2-(2-hydroxy-4,6-dimethylphenyl)-6-[(morpholin-4-yl)methyl]-2,5-dihydro-4H-pyrazolo[3,4-d]pyrimidin-4-one] | > 30 | 95 | – | – |
| Cc1cc(C)c(-n2cc3c(=O)[nH]c(CC4CCCO4)nc3n2)c(O)c1 (stereo not drawn) [Example 33, 2-(2-hydroxy-4,6-dimethylphenyl)-6-[(oxolan-2-yl)methyl]-2,5-dihydro-4H-pyrazolo[3,4-d]pyrimidin-4-one] | > 30 | 97 | – | – |
